For data set [1], the system named is M 5076 sarcoma. Kind of data set: Inhibition of tumor growth in vivo in M 5076 sarcoma in mice. The settings on record: for M 5076 sarcoma % ITG (inhibition of tumor growth): 13th day; for correlation between antitumor activity and inhibition of angiogenesis: M 5076 antitumor activity versus CAM test, in words. The protocol: The malignant cells (10^6 /mouse) are inoculated subcutaneously on day 0 to form a tumor nodule. The mice are then distributed at random in treated/control groups (12 mice/group). […] The inhibition of tumor growth (ITG) is evaluated on the 13th day according to the following calculation: [formula]

Data set [2] can be described thus: Cytotoxicity, PAEC (microculture tetrazolium assay). The settings on record: pig, aorta endothelial cells paec, 3 days, read-out: Cytotoxicity PAEC IC50. Format: cell-based. The protocol: (§1) Three cell lines were used:
(§2) 1 primary culture of pig aorta endothelial cells, PAEC.
(§3) The cells are cultured in complete RPMI 1640 medium containing 10% of fetal calf serum, 2 mM glutamine, 50 units/ml of penicillin, 50 μg/ml of streptomycin and 10 mM HEPES (pH=7.4).
(§4) The cells are distributed in microplates and exposed to the compounds of the invention. The cells are then incubated for two days (L1210), 3 days (PAEC) and 4 days (A431). The number of viable cells is then quantified by a colorimetric assay, the microculture tetrazolium assay (Carmichael J., DeGraff W. G., Gazdar A. F., Minna J. D. and Mitchell J. R., Evaluation of a tetrazolium-based semiautomated colorimetric assay: assessment of chemosensitivity testing, Cancer Res., 47, 936-942, (1987)).

For data set [3], the system named is L1210, A431 and PAEC cells. Description: Cytotoxicity (microculture tetrazolium assay), three cell lines. Format: cell-based, murine (L1210), human (A431), pig (PAEC). To be noted: in words. The protocol: as §1
(§5) 1 murine leukemia, L1210,
1 human epidermoid carcinoma, A431,
as §2, §3, §4

Data set [4] can be described thus: Cytotoxicity, L1210 (microculture tetrazolium assay). Format: cell-based, murine. To be noted: mouse, l1210 cells; L1210, 2 days; read-out: Cytotoxicity L 1210 IC50. The protocol: as §1, §5, §3, §4
Data set [5] has as its system chick embryo chorioallantoic membrane. Description: Inhibition of the neovascularization of the chick embryo chorioallantoic membrane (CAM test). Format: in vivo. To be noted: for inhibition at 125 µM: Gallus gallus, % of eggs with avascular zone > 4 mm, 48 hours; for CAM test: collective results table, with spread, % of eggs displaying an avascular zone. The protocol: This test is carried out with chick embryos as described previously (Crum R., Szabo S. and Folkman J., Science, (1985), 230, 1375-1378). Fertilized eggs (D0) are incubated at 37° C. An air pocket is created by withdrawing 1 ml of albumin (D3), and a window is then cut in the shell (D4) and the vitelline membrane is removed to expose the chorioallantoic membrane (CAM).
The test products are solubilized in ethanol and applied to methylcellulose disks, which are dried and applied to CAM on day 6. Between 8 and 16 eggs are used per group. The zone located around the disk is then examined 48 hours later. Eggs displaying an avascular zone greater than 4 mm in diameter are counted, and the results are expressed as a percentage of eggs displaying an avascular zone. […]

In data set [6] the test system is murine leukemia, L1210. Kind of data set: Cytotoxicity, L1210 (microculture tetrazolium assay). Format: cell-based. The protocol: as §1, §5, §3, §4

Each structure is given as a SMILES string. Where a name gives a salt, the structure may show the parent alone. Where only a bound is given, the exact number is not on record here.

For orientation: inhibition means the change of the read-out against control, counted positive when it falls. Higher therefore signals strong suppression. On to `O=C(CCCCCCCCC(=O)Nc1ccc(P(=O)(O)O)cc1)Nc1ccc(P(=O)(O)O)cc1` [Example 1, 4,4'-[1,8-Octanediylbis(carbonylamino)]bis(phenylphosphonic acid)tetrasodium salt], for which the “M 5076 sarcoma % ITG (inhibition of tumor growth)” value in data set [1] (60 mg/kg, intraperitoneal day 1 to day 12) is listed as 61%. In addition, in data set [1], the “correlation between antitumor activity and inhibition of angiogenesis” value is recorded as “very good correlation”. The CC50 at 72 h in data set [2] is more than 500 µM. The cytotoxic effect result in data set [3] is recorded as “without a cytotoxic effect”. Besides, the CC50 at 48 h in data set [4] is more than 500 µM. In data set [5], the inhibition at 125 µM came to 64% and the CAM test stood at 64 ± 6%.
Regarding `O=C(CCCCCCCCCCC(=O)Nc1ccc(P(=O)(O)O)cc1)Nc1ccc(P(=O)(O)O)cc1` [Example 5, 4,4'-[1,10-Decanediylbis(carbonylamino)]bis(phenylphosphonic acid)tetrasodium salt], 125 µM produced 68% inhibition in data set [5].
The same measure, in the same setting: for `O=C(CCCCCCCCCCCCC(=O)Nc1ccc(P(=O)(O)O)cc1)Nc1ccc(P(=O)(O)O)cc1` [Example 7, 4,4'-[1,12-Dodecanediylbis(carbonylamino)]bis(phenylphosphonic acid)] the value was 56%.
With `O=C(CCCCCCCCCCCCCC(=O)Nc1ccc(P(=O)(O)O)cc1)Nc1ccc(P(=O)(O)O)cc1` [Example 8, 4,4'-[1,13-Tridecanediylbis(carbonylamino)]bis(phenylphosphonic acid)], the inhibition at 125 µM in data set [5] came out at 90%.
For `O=C(Nc1ccc(P(=O)(O)O)cc1)c1ccc(Cc2ccc(C(=O)Nc3ccc(P(=O)(O)O)cc3)cc2)cc1` [Example 11, 4,4'-[4,4'-Diphenylmethanediylbis(carbonylamino)]bis(phenylphosphonic acid)tetra-sodium salt], in data set [1] (30 mg/kg, intraperitoneal day 1 to day 12), the “M 5076 sarcoma % ITG (inhibition of tumor growth)” value is listed as 60%. Further, the “correlation between antitumor activity and inhibition of angiogenesis” value in data set [1] is listed as “very good correlation”. For the same compound, in data set [2], the CC50 at 72 h came out at 429 µM. The cytotoxic effect entry in data set [3] is listed as “without a cytotoxic effect”. Moreover, the CC50 at 48 h in data set [4] is more than 500 µM. In data set [5], this compound showed an inhibition at 125 µM of 65% and a CAM test of 65 ± 8%.
In data set [5], `O=C(C=Cc1ccc(C=CC(=O)Nc2ccc(P(=O)(O)O)cc2)cc1)Nc1ccc(P(=O)(O)O)cc1` [Example 24, 4,4'-[1,4-Divinylenebenzenediylbis(carbonylamino)]bis(phenylphosphonic acid)] showed an inhibition at 125 µM of 82%.
`O=C(CC[C@H]1CC[C@H](CCC(=O)Nc2ccc(P(=O)(O)O)cc2)CC1)Nc1ccc(P(=O)(O)O)cc1` [Example 32, 4,4'-[trans-1,4-Diethylenecyclohexanediylbis(carbonylamino)]bis(phenylphosphonic acid)] yielded an inhibition at 125 µM in data set [5] of 80%.
On the same count and under the same terms, for `O=C(C=Cc1ccc(C=CC(=O)Nc2ccc(P(=O)(O)O)cc2)s1)Nc1ccc(P(=O)(O)O)cc1` [Example 39, 4,4'-[2,5-Divinylenethiophenediylbis(carbonylamino)]bis(phenylphosphonic acid)] the value was 75%; for `O=C(C=Cc1ccc2cc(C=CC(=O)Nc3ccc(P(=O)(O)O)cc3)ccc2c1)Nc1ccc(P(=O)(O)O)cc1` [Example 40, 4,4'-[2,6-Divinylenenaphthalenediylbis(carbonylamino)]bis(phenylphosphonic acid)], 68%; for `O=C(C=Cc1ccc(C=CC(=O)Nc2ccc(P(=O)(O)O)cc2)c2ccccc12)Nc1ccc(P(=O)(O)O)cc1` [Example 44, 4,4'-[1,4-Divinylenenaphthalenediylbis(carbonylamino)]bis(phenylphosphonic acid)], 80%.
For the compound `O=C(C=C[C@H]1CC[C@H](C=CC(=O)Nc2ccc(P(=O)(O)O)cc2)CC1)Nc1ccc(P(=O)(O)O)cc1` [Example 45, 4,4'-[1,4-trans-Divinylenecyclohexanediylbis(carbonylamino)]bis(phenylphosphonic acid)], in data set [5], 125 µM produced 89% inhibition.
In the case of `O=C(/C=C/C=C/c1ccc(/C=C/C=C/C(=O)Nc2ccc(P(=O)(O)O)cc2)cc1)Nc1ccc(P(=O)(O)O)cc1` [Example 47, 4,4'-[1,4-Di(1,3-trans-trans-butadienylene)benzenediylbis(carbonylamino)]bis(phenylphosphonic acid)], in data set [5], the inhibition at 125 µM is 93%.
Take `Cc1ccc(C(=O)Nc2ccc(S(=O)(=O)O)c3cc(S(=O)(=O)O)cc(S(=O)(=O)O)c23)cc1NC(=O)c1cccc(NC(=O)Nc2cccc(C(=O)Nc3cc(C(=O)Nc4ccc(S(=O)(=O)O)c5cc(S(=O)(=O)O)cc(S(=O)(=O)O)c45)ccc3C)c2)c1` [Suramin, suramin, reference compound]: in data set [1] (100 mg/kg, d 1,4,7 i.v.), the “M 5076 sarcoma % ITG (inhibition of tumor growth)” value was 67%. For the same compound, in data set [2], the CC50 at 72 h was determined as 202 ± 10 µM. The “cytotoxicity on the L 1210 leukemic line” value in data set [6] is “relative cytotoxicity”. Also, the CC50 at 48 h in data set [4] was determined as 131 ± 21 µM. In data set [5], this compound returned an inhibition at 125 µM of 20% and a CAM test of 20 ± 3%. Besides, in data set [5] (in words), the “inhibition of neovascularization (CAM)” value is “weak inhibition of neovascularization”.

Source of the values: patent US5670493A, “Aminophenylphosphonic acid compounds” (priority 1995, dated 1997).
